Assay results as given in US7138361B2, “Herbicidal heterocycles” (E. I. du Pont de Nemours and Company, priority 2000, dated 2006).

How the values were obtained:
Type in all cases: in vivo
[1] = test system: smallflower flatsedge (Cyperus difformis); assay: Test C flooded paddy test; settings: for Flatsedge plant response rating: Flooded Paddy, scale 0 to 100, 0 no effect, 100 complete control; for Plant response rating, Flatsedge: flooded paddy test, scale 0 to 100 (0 no effect, 100 complete control)
How it was run: (§1)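 Greenhouse-maintained for 12 to 14 days after treatment, the paddy plants (2-leaf stage at application) were scored visually against controls. A score of 0 denotes no effect and a score of 100 denotes complete control.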

[2] = test system: barnyardgrass (Echinochloa crus-galli); assay: Test C flooded paddy test; settings: for Barnyardgrass plant response rating: Flooded Paddy, scale 0 to 100, 0 no effect, 100 complete control; for Plant response rating, Barnyardgrass: flooded paddy test, scale 0 to 100 (0 no effect, 100 complete control)
How it was run: as §1

[3] = test system: duck salad (Heteranthera limosa); assay: Test C flooded paddy test; settings: for Ducksalad plant response rating: Flooded Paddy, scale 0 to 100, 0 no effect, 100 complete control; for Plant response rating, Ducksalad: flooded paddy test, scale 0 to 100 (0 no effect, 100 complete control)
How it was run: as §1

[4] = test system: woolly cupgrass (Eriochloa villosa); assay: Test C preemergence
How it was run: (§2)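 Each compound was dissolved in a non-phytotoxic solvent system containing a surfactant and sprayed either on freshly planted seeds (preemergence) or on young plants, 2 to 18 cm high (postemergence). Ratings after 12 to 14 greenhouse days ran from 0, no effect, to 100, complete control.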

[5] = test system: goosegrass (Eleusine indica); assay: Test C preemergence
How it was run: as §2

[6] = test system: velvetleaf (Abutilon theophrasti); assay: Test C preemergence
How it was run: as §2

[7] = test system: morningglory (Ipomoea hederacea); assay: Test C preemergence
How it was run: as §2

[8] = test system: giant foxtail (Setaria faberii); assay: Test C preemergence
How it was run: as §2

[9] = test system: cocklebur (Xanthium strumarium); assay: Test C preemergence
How it was run: as §2

[10] = test system: Surinam grass (Brachiaria decumbens); assay: Test C preemergence
How it was run: as §2

[11] = test system: pigweed (Amaranthus retroflexus); assay: Test C preemergence
How it was run: as §2

corn (Zea mays) = assay: Test C preemergence
How it was run: as §2

[12] = test system: crabgrass (Digitaria sanguinalis); assay: Test C preemergence
How it was run: as §2

[13] = test system: bermudagrass (Cynodon dactylon); assay: Test C preemergence
How it was run: as §2

Nightshade = assay: Test C preemergence
[14] = test system: johnsongrass (Sorghum halepense); assay: Test C preemergence
How it was run: as §2

kochia (Kochia scoparia) = assay: Test C preemergence
How it was run: as §2

soybean (Glycine max) = assay: Test C preemergence
How it was run: as §2

[15] = test system: common ragweed (Ambrosia elatior); assay: Test C preemergence
How it was run: as §2

Sunflower = assay: Test C preemergence
[16] = test system: lambsquarters (Chenopodium album); assay: Test C preemergence
How it was run: as §2

[17] = test system: yellow nutsedge (Cyperus esculentus); assay: Test C preemergence
How it was run: as §2

[18] = Preemergence, Rate 500 g/ha, scale 0 to 100
[19] = Rate 62 g/ha, scale 0 to 100, 0 no effect, 100 complete control
[20] = preemergence, Rate 31 g/ha, scale 0 to 100
[21] = preemergence, Rate 250 g/ha, visual evaluation after 12 to 14 days
[22] = preemergence, Rate 125 g/ha, scale 0 to 100, 0 no effect, 100 complete control

With `CCC(CC)c1ccn(C2SCN(c3cccc(C(F)(F)F)c3)C2=O)n1` (stereo not shown) [Compound 25] the “Flatsedge plant response rating” value ([1]; Rate 250 g/ha) was 100, the “Flatsedge plant response rating” value ([1]; Rate 500 g/ha) was 100 and the “Plant response rating, Flatsedge” value ([1]; Rate 62 g/ha) was 100. The “Plant response rating, Flatsedge” value ([1]; Rate 125 g/ha) was 100, the “Barnyardgrass plant response rating” value ([2]; Rate 250 g/ha) was 100 and the “Barnyardgrass plant response rating” value ([2]; Rate 500 g/ha) was 100. The “Plant response rating, Barnyardgrass” value ([2]; Rate 62 g/ha) was 100, the “Plant response rating, Barnyardgrass” value ([2]; Rate 125 g/ha) was 100 and the “Ducksalad plant response rating” value ([3]; Rate 250 g/ha) was 100. The “Ducksalad plant response rating” value ([3]; Rate 500 g/ha) was 100, the “Plant response rating, Ducksalad” value ([3]; Rate 62 g/ha) was 100 and the “Plant response rating, Ducksalad” value ([3]; Rate 125 g/ha) was 100. The “Plant response rating, Cupgrass, Woolly” value [4, 18] was 100, the “Plant response rating, Cupgrass, Woolly” value [4, 19] was 80 and the “Plant response rating, Cupgrass, Woolly” value [4, 20] was 60. For the same molecule, the “Plant response rating (0 to 100), Cupgrass, Woolly” value [4, 21] was 100, the “Plant response rating, Cupgrass, Woolly” value [4, 22] was 100 and the “Plant response rating, Goosegrass” value [5, 18] was 100. For the same molecule, the “Plant response rating, Goosegrass” value [5, 19] was 100, the “Plant response rating, Goosegrass” value [5, 20] was 100 and the “Plant response rating (0 to 100), Goosegrass” value [5, 21] was 100. For the same molecule, the “Plant response rating, Goosegrass” value [5, 22] was 100, the “Plant response rating, Velvetleaf” value [6, 18] was 20 and the “Plant response rating, Velvetleaf” value [6, 19] was 30. For the same molecule, the “Plant response rating, Velvetleaf” value [6, 20] was 0, the “Plant response rating (0 to 100), Velvetleaf” value [6, 21] was 70 and the “Plant response rating, Velvetleaf” value [6, 22] was 0. For the same molecule, the “Plant response rating, Morningglory” value [7, 18] was 90, the “Plant response rating, Morningglory” value [7, 19] was 20 and the “Plant response rating, Morningglory” value [7, 20] was 0. For the same molecule, the “Plant response rating (0 to 100), Morningglory” value [7, 21] was 100, the “Plant response rating, Morningglory” value [7, 22] was 30 and the “Plant response rating, Foxtail, Giant” value [8, 18] was 90. The “Plant response rating, Foxtail, Giant” value [8, 19] was 90, the “Plant response rating, Foxtail, Giant” value [8, 20] was 20 and the “Plant response rating (0 to 100), Foxtail, Giant” value [8, 21] was 100. The “Plant response rating, Foxtail, Giant” value [8, 22] was 70, the “Plant response rating, Cocklebur” value [9, 18] was 70 and the “Plant response rating, Cocklebur” value [9, 19] was 0. For the same molecule, the “Plant response rating, Cocklebur” value [9, 20] was 0, the “Plant response rating (0 to 100), Cocklebur” value [9, 21] was 100 and the “Plant response rating, Cocklebur” value [9, 22] was 0. The “Plant response rating, Surinam grass” value [10, 18] was 80, the “Plant response rating, Surinam grass” value [10, 19] was 40 and the “Plant response rating, Surinam grass” value [10, 20] was 20. For the same molecule, the “Plant response rating (0 to 100), Surinam grass” value [10, 21] was 80, the “Plant response rating, Surinam grass” value [10, 22] was 80 and the “Plant response rating, Pigweed” value [11, 18] was 90. The “Plant response rating, Pigweed” value [11, 19] was 60, the “Plant response rating, Pigweed” value [11, 20] was 100 and the “Plant response rating (0 to 100), Pigweed” value [11, 21] was 90. The “Plant response rating, Pigweed” value [11, 22] was 100, the “Plant response rating, Corn” value (corn (Zea mays); [18]) was 50 and the “Plant response rating, Corn” value (corn (Zea mays); [19]) was 0. The “Plant response rating, Corn” value (corn (Zea mays); [20]) was 0, the “Plant response rating (0 to 100), Corn” value (corn (Zea mays); [21]) was 20 and the “Plant response rating, Corn” value (corn (Zea mays); [22]) was 20. For the same molecule, the “Plant response rating, Crabgrass” value [12, 18] was 100, the “Plant response rating, Crabgrass” value [12, 19] was 100 and the “Plant response rating, Crabgrass” value [12, 20] was 100. For the same molecule, the “Plant response rating (0 to 100), Crabgrass” value [12, 21] was 100, the “Plant response rating, Crabgrass” value [12, 22] was 100 and the “Plant response rating, Bermudagrass” value [13, 18] was 100. For the same molecule, the “Plant response rating, Bermudagrass” value [13, 19] was 100, the “Plant response rating, Bermudagrass” value [13, 20] was 90 and the “Plant response rating (0 to 100 where 0 is no effect and 100 is complete control), Bermudagrass” value [13, 21] was 100. For the same molecule, the “Plant response rating, Bermudagrass” value [13, 22] was 100, the “Plant response rating, Nightshade” value (Nightshade; Rate 31 g/ha, scale 0 to 100) was 20 and the “Plant response rating, Nightshade” value (Nightshade; [19]) was 100. For the same molecule, the “Plant response rating, Nightshade” value (Nightshade; Rate 125 g/ha, scale 0 to 100, 0 no effect, 100 complete control) was 100, the “Plant response rating, Nightshade” value (Nightshade; Rate 500 g/ha, scale 0 to 100) was 100 and the “Plant response rating, Johnsongrass” value [14, 18] was 100. The “Plant response rating, Johnsongrass” value [14, 19] was 70, the “Plant response rating, Johnsongrass” value [14, 20] was 30 and the “Plant response rating (0 to 100), Johnsongrass” value [14, 21] was 90. For the same molecule, the “Plant response rating, Johnsongrass” value [14, 22] was 90, the “Plant response rating, Kochia” value (kochia (Kochia scoparia); [18]) was 100 and the “Plant response rating, Kochia” value (kochia (Kochia scoparia); [19]) was 50. The “Plant response rating, Kochia” value (kochia (Kochia scoparia); [20]) was 60, the “Plant response rating (0 to 100), Kochia” value (kochia (Kochia scoparia); [21]) was 100 and the “Plant response rating, Kochia” value (kochia (Kochia scoparia); [22]) was 100. The “Plant response rating, Soybean” value (soybean (Glycine max); [18]) was 60, the “Plant response rating, Soybean” value (soybean (Glycine max); [19]) was 0 and the “Plant response rating, Soybean” value (soybean (Glycine max); [20]) was 20. For the same molecule, the “Plant response rating (0 to 100), Soybean” value (soybean (Glycine max); [21]) was 50, the “Plant response rating, Soybean” value (soybean (Glycine max); [22]) was 30 and the “Plant response rating, Ragweed, Common” value [15, 18] was 100. The “Plant response rating, Ragweed, Common” value [15, 19] was 70, the “Plant response rating, Ragweed, Common” value [15, 20] was 0 and the “Plant response rating (0 to 100), Ragweed, Common” value [15, 21] was 70. The “Plant response rating, Ragweed, Common” value [15, 22] was 70, the “Plant response rating, Sunflower” value (Sunflower; [19]) was 30 and the “Plant response rating, Sunflower” value (Sunflower; Rate 500 g/ha, scale 0 to 100) was 70. For the same molecule, the “Plant response rating, Lambsquarters” value [16, 18] was 100, the “Plant response rating, Lambsquarters” value [16, 19] was 100 and the “Plant response rating, Lambsquarters” value [16, 20] was 100. The “Plant response rating (0 to 100), Lambsquarters” value [16, 21] was 100, the “Plant response rating, Lambsquarters” value [16, 22] was 100 and the “Plant response rating, Nutsedge” value [17, 18] was 0. For the same molecule, the “Plant response rating, Nutsedge” value [17, 19] was 0, the “Plant response rating, Nutsedge” value [17, 20] was 0 and the “Plant response rating (0 to 100), Nutsedge” value [17, 21] was 40. The “Plant response rating, Nutsedge” value [17, 22] was 0.
